Experimental data reported in paper PMC5527305, “Prevention of Ophthalmia Neonatorum Caused by Neisseria gonorrhoeae Using a Fatty Acid-Based Formulation” (mBio, 2017).

Assays:
[1] = tested on: N. gonorrhoeae strain NCCP11945; assay: Growth inhibition screen on GC solid media containing 1 mM candidate; assay type: cell-based, Neisseria gonorrhoeae; conditions: 1 mM candidate in GC agar media; Yes = strain NCCP11945 did not grow
Procedure: (§1) To find potential candidates, 37 organic acids, esters, and salts were tested in a two-tiered screening process. These candidates were chosen based on the carbon chain lengths of the fatty acids, the presence or absence of saturation, and modifications to represent a diverse selection of organic acid candidates. The first screen aimed to determine the ability of each compound to inhibit the growth of N. gonorrhoeae strain NCCP11945 at 1 mM in GC solid media (Table 1). This strain was chosen due to its relatively recent isolation, its antibiotic resistance profile, and the availability of a complete genome sequence. Those candidates able to inhibit the growth of N. gonorrhoeae strain NCCP11945 were investigated in a second assay. The second assay tested the ability of each compound to cause at least a 4-log reduction in viable bacteria at 1 mM with a 2-min exposure time (Table 1).
The well-characterized N. gonorrhoeae NCCP11945 strain ([36]) was used in the screening stage. Eight isolates obtained from Public Health England, representing circulating isolates from various European locations, were used in the log reduction assays. All isolates were cultured for 24 h prior to testing by plating on GC solid medium (Oxoid Limited, Hampshire, United Kingdom) with Kellogg supplements and incubation at 37°C and 5% CO2 ([37]).

[2] = tested on: N. gonorrhoeae strain NCCP11945; assay: Log reduction assay in GC broth, 2-min exposure; assay type: cell-based, Neisseria gonorrhoeae
Procedure: as §1
Log reductions were done as described by Bergsson and coworkers ([18]). Briefly, cells were suspended in GC broth (18 g/liter GC base [Oxoid, Limited] with added defined supplements) to an optical density at 520 nm of 0.3, which is approximately equivalent to 10^7 to 10^8 cells per ml ([38]). […] The contents of the tubes were then mixed at room temperature for 2 min and immediately diluted in a 10-fold dilution series to 10^−4. The dilutions were plated by spreading 10 µl on a quarter of a plate; a 100-µl neat solution was also plated. Plates were then incubated at 37°C for 48 h, with all samples plated in duplicate. […] Additional testing at lower concentrations was also done on the eight clinical isolates of European origin.

bovine cornea = assay: Bovine corneal opacity and permeability (BCOP) test
Procedure: Bovine eyes were collected from a local slaughter house (ABP, Guildford, Surrey, United Kingdom) and were transported in cold saline solution for testing at the laboratory. Each eye was first visually examined for signs of damage before use. The test was conducted as detailed by Abdelkader and coworkers ([21]). The exposure time of the test substances was 30 s. The selected bactericidal compounds were tested at 1 mM in saline solution, with a corresponding vehicle control (1% ethanol–saline solution) also performed. […] The test area of the cornea was then washed with 10 ml saline solution. Corneal damage to the test area was assessed by fluorescein staining and examination under a cobalt blue filter. Pathological scoring based on opacity, epithelial integrity, and epithelial detachment was done in accordance with previous publications ([19]). Each of the seven lead candidates was tested in triplicate, and each test was performed on a separate day using a different batch of eyeballs. Corneal histology was done as outlined by Abdelkader and coworkers ([21]) by evaluating the damage to the epithelial layer and stroma of the cornea after hematoxylin and eosin staining.

bovine RBCs = assay: Red blood cell (RBC) lysis assay; assay type: cell-based
Procedure: Whole bovine blood was obtained from a local slaughter house (ABP), adding 90 ml blood to 10 ml 110 mM trisodium citrate anticoagulant. RBCs were isolated the same day. The RBCs were washed by three repeats of centrifugation (1,500 × g for 10 min) and resuspension in phosphate-buffered saline (PBS) with 10 mM glucose (PBSG). Testing was done following the guidelines of the European Union Reference Laboratory for alternatives to animal testing (EURL-ECVAM) ([22]). The organic acids were solubilized in dimethyl sulfoxide (DMSO) and diluted to a maximum DMSO concentration of 10%. In a 2-ml centrifuge tube, 750 µl of the sample was added to 250 µl RBCs. Controls used in the assay were a complete lysis control (deionized water) and a fragility control (PBSG–10% DMSO). Samples were shaken at room temperature for 1 h and then centrifuged at 14,000 × g for 2 min. An aliquot of 750 µl of the supernatant was taken and its absorbance at 451 nm measured.

[3] = tested on: N. gonorrhoeae strain NCCP11945 in coculture with human corneal epithelial cells; assay: Cell culture infection model, log reduction of N. gonorrhoeae on corneal epithelial cells; assay type: cell-based, Neisseria gonorrhoeae; conditions: for Killing of N. gonorrhoeae in coculture with corneal cells: 1 mM, added at time of infection or 90 min later, 3 h
Procedure: Because of its potency, resistance to precipitation in the presence of calcium, and nonirritant nature, monocaprin was chosen from the seven candidates to test in a cell culture model with a 2-fold dilution series from 1 mM to 0.125 mM. Bacteria were also challenged with this compound at two different time points, i.e., at the time of the inoculation and 90 min later. […] There was a slight difference in the level of efficacy when monocaprin was used at sub-MBC levels and added 90 min after bacterial inoculation in comparison to addition immediately after inoculation of the bacteria (Fig. 6). This was possibly due to monocaprin hindering attachment of the bacterial cells to the corneal cells when it was added at the time of infection.
Primary cornea epithelial cells (Life Technologies, Inc.) were grown in keratinocyte serum-free medium (Life Technologies, Inc.) at 37°C with 5% CO2 until 80% confluence was reached. Cells were treated with trypsin, washed, added to 24-well plates, and incubated for a further 24 h. The medium was replaced and approximately 10^7 CFU/ml P^+ and Opa^+ N. gonorrhoeae strain NCCP11945 added to reach a host-to-pathogen ratio (multiplicity of infection) of 1:10. Monocaprin (1 mM, 0.5 mM, 0.25 mM, or 0.125 mM) was added either at 0 min or at 90 min after seeding with N. gonorrhoeae. Controls included noninfected, noninfected treated (with 1 mM monocaprin), infection, and gentamicin controls. After 3 h, the cells were washed, treated with 1% saponin, and incubated for 10 min at 37°C. GC broth was added to each well, and log reductions were calculated as detailed above. Comparisons of the log reductions at different drug administration times at given concentrations were performed using an unpaired t test and GraphPad Prism (version 6.01).

[4] = tested on: N. gonorrhoeae on human corneal epithelial cells; assay: LIVE/DEAD staining of gonococcus-infected human corneal epithelial cells; assay type: cell-based, Neisseria gonorrhoeae; conditions: 1 mM
Procedure: The LIVE/DEAD BacLight bacterial viability kit for microscopy (Life Technologies, Inc.) was used according to manufacturer’s instructions. After the course of infection, the culture wells were washed five times with sterile 0.85% NaCl to remove nonadhered bacterial cells. Stain was added to each well for 15 min at room temperature before washing in 0.85% saline solution was performed. Glass coverslips were mounted in BacLight mounting oil and visualized on a Nikon Eclipse i80 fluorescence microscope (Nikon United Kingdom) as detailed above.

N. gonorrhoeae = tested on: N. gonorrhoeae; set-up: method as in PMID 10543766; conditions: cited from earlier work

Mean cumulative BCOP score (bovine cornea; 1 mM in saline solution, 30 s exposure, triplicate): lower than 0.5
Fluorescein staining of cornea (bovine cornea; 1 mM, around rubber application ring): any sign of fluorescein staining
H50 concentration relative to MBC (bovine RBCs): greater than their MBCs
SMILES: CCCCCCCCCC(=O)OCC(O)CO (centres unmarked) [Monocaprin]
Growth inhibition [1]: Yes
Log reduction at 1 mM: at least a 4-log reduction in viable bacteria (Yes/No) [2]: Yes
Log reduction at 1 mM (calculated log reduction in viable bacteria) ([2]; maximum score 6 = all cells killed): > 6 log10
BCOP irritancy classification (bovine cornea; candidates 1 mM in saline, controls 0.5 M NaOH, 100% acetone, 30 s exposure): nonirritants
Efficacy (log reduction) in cell culture model ([3]; 0.125 mM, both time points): completely ineffective
Killing of N. gonorrhoeae in coculture with corneal cells [3]: killed all N. gonorrhoeae bacteria
Killing of N. gonorrhoeae in coculture with corneal cells ([3]; listed as monocaprin): complete killing
Bacterial log reduction, comparison of addition times ([3]; 0.25 and 0.5 mM, 0 min vs 90 min): more effective at 0 min
LIVE/DEAD staining of bacteria on infected corneal cells [4]: only dead bacterial cells
Viable bacteria recovered from treated wells [4]: No viable bacteria were recovered
Antigonococcal properties (N. gonorrhoeae): strong antigonococcal properties
